Experiments:
[1] = Inhibition of asexual blood stage of Plasmodium falciparum 3D7 PKA assessed as inhibition of parasite proliferation after 72 hrs by Malstat assay
[2] = Inhibition of asexual blood stage of chloroquine-resistant Plasmodium falciparum W2mef PKA assessed as inhibition of parasite proliferation after 72 hrs by Malstat assay

| SMILES | IC50 [1] | IC50 [2] |
| --- | --- | --- |
| CCCCNc1nc(C)c(C(N)=O)c2ccccc12 | > 50 µM |  |
| Cc1nc(NC(C)(C)C)c2ccccc2c1C#N | 5.2 µM | 4.2 µM |
| CCCCCNc1nc(C)c(C#N)c2ccccc12 | 8.6 µM | 9.6 µM |
| Cc1nc(NC2CCCCC2)c2ccccc2c1C#N | > 50 µM | > 50 µM |
| Cc1nc(NCc2ccccc2)c2ccccc2c1C#N | > 50 µM | > 50 µM |
| CCCCNc1nc(C)c(C#N)c2ccccc12 | 34 µM | 33 µM |
| Cc1nc(NCC(C)C)c2ccccc2c1C#N | > 50 µM | 28 µM |
| CCCCNc1nc(CC)c(C#N)c2ccccc12 | 25 µM | 22 µM |
| CCNc1nc(C)c(C#N)c2ccccc12 | > 50 µM | > 50 µM |
| CCCNc1nc(C)c(C#N)c2ccccc12 | > 50 µM | > 50 µM |
| Cc1nc(N)c2ccccc2c1C#N | 34 µM | 36 µM |
| CCCCOc1nc(C)c(C#N)c2ccccc12 | 36 µM | 16 µM |

— ChEMBL document CHEMBL3792329, “Exploration of 3-methylisoquinoline-4-carbonitriles as protein kinase A inhibitors of Plasmodium falciparum” (Bioorg Med Chem, 2016)
